Test results taken from the supplement of paper PMC10331698.
± gives the standard deviation of the averaged measurements.

How the values were obtained:
Assay in all cases: level (log10 ratio to DMSO vehicle control); higher = higher biomarker level / cell amount than vehicle control
[1] = compound: O=C(O)C(F)(F)C(F)(F)C(F)(F)OC(F)(F)F [Perfluoro(4-methoxybutanoic) acid] (in DMSO)
Method: (§1)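 BioMAP Diversity Plus panel of 12 human primary cell co-culture systems (3C, 4H, LPS, SAg, BT, BF4T, BE3C, CASM3C, HDF3CGF, KF3CT, MyoF, Mphg). Compounds were added 1 h before stimulation and left for 24 h (MyoF 48 h; BT 72 h for soluble read-outs or 6 d for IgG). Biomarkers were read by ELISA, cytotoxicity by SRB, PBMC viability and proliferation by Alamar Blue. Each well value was divided by the mean of 8 DMSO control wells on the same plate and log10 transformed; duplicate blinded samples were tested at 4 concentrations.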

[2] = compound: O=C(O)C(F)(OC(F)(F)C(F)(OC(F)(F)C(F)(OC(F)(F)C(F)(F)C(F)(F)F)C(F)(F)F)C(F)(F)F)C(F)(F)F [Perfluoro-(2,5,8-trimethyl-3,6,9-trioxadodecanoic)acid] (in DMSO)
Method: as §1

[3] = compound: OCC(F)(F)C(F)(F)C(F)(F)C(F)(F)C(F)(F)C(F)(F)CO [1H,1H,8H,8H-Perfluorooctane-1,8-diol] (in DMSO)
Method: as §1

[4] = compound: O=C(O)C=C(C(F)(F)F)C(F)(F)F [3,3-Bis(trifluoromethyl)-2-propenoic acid] (in DMSO)
Method: as §1

[5] = compound: O=C(O)CCC(F)(C(F)(F)F)C(F)(F)F [4,4-bis(Trifluoromethyl)-4-fluoropropanoic acid] (in DMSO)
Method: as §1

[6] = compound: OCCC(F)(F)C(F)(F)C(F)(F)C(F)(F)F [4:2 Fluorotelomer alcohol] (in DMSO)
Method: as §1

Test System: CASM3C:CXCL8/IL-8
- level (log10) ([1]; 6700 nM): 0.002 ± 0.0099
- level (log10) ([1]; 20000 nM): -0.0065 ± 0.013
- level (log10) ([1]; 60000 nM): 0.0165 ± 0.011
- level (log10) ([2]; 1100 nM): -0.0025 ± 0.021
- level (log10) ([2]; 3300 nM): -0.015 ± 0.025
- level (log10) ([2]; 10000 nM): 0.0105 ± 0.0035
- level (log10) ([3]; 6700 nM): -0.007 ± 0.027
- level (log10) ([3]; 20000 nM): -0.0135 ± 0.022
- level (log10) ([3]; 60000 nM): 0.007 ± 0.011
- level (log10) ([4]; 6700 nM): -0.0025 ± 0.0021
- level (log10) ([4]; 20000 nM): -0.0045 ± 0.005
- level (log10) ([4]; 60000 nM): 0.0125 ± 0.022
- level (log10) ([5]; 6700 nM): -0.0115 ± 0.012
- level (log10) ([5]; 20000 nM): -0.0135 ± 0.012
- level (log10) ([5]; 60000 nM): -0.0195 ± 0.005
- level (log10) ([6]; 6700 nM): -0.002 ± 0.0028
- level (log10) ([6]; 20000 nM): 0.0035 ± 0.026
- level (log10) ([6]; 60000 nM): 0.019 ± 0.031

Test System: KF3CT:CXCL8/IL-8
- level (log10) ([1]; 6700 nM): 0.006 ± 0.017
- level (log10) ([1]; 20000 nM): 0.012 ± 0.0085
- level (log10) ([1]; 60000 nM): 0.014 ± 0.0099
- level (log10) ([2]; 1100 nM): -0.004 ± 0.0099
- level (log10) ([2]; 3300 nM): -0.01 ± 0.035
- level (log10) ([2]; 10000 nM): 0.0175 ± 0.056
- level (log10) ([3]; 6700 nM): -0.0015 ± 0.019
- level (log10) ([3]; 20000 nM): -0.0215 ± 0.023
- level (log10) ([3]; 60000 nM): 0
- level (log10) ([4]; 6700 nM): -0.004 ± 0.0028
- level (log10) ([4]; 20000 nM): 0.0025 ± 0.0092
- level (log10) ([4]; 60000 nM): 0.0245 ± 0.016
- level (log10) ([5]; 6700 nM): -0.023 ± 0.0028
- level (log10) ([5]; 20000 nM): -0.0105 ± 0.00071
- level (log10) ([5]; 60000 nM): -0.0115 ± 0.013
- level (log10) ([6]; 6700 nM): 0.0025 ± 0.0021
- level (log10) ([6]; 20000 nM): 0.0185 ± 0.013
- level (log10) ([6]; 60000 nM): 0.028 ± 0.017

Test System: HDF3CGF:PAI-I
- level (log10) ([1]; 6700 nM): -0.009 ± 0.0042
- level (log10) ([1]; 20000 nM): -0.0135 ± 0.0078
- level (log10) ([1]; 60000 nM): -0.001 ± 0.014
- level (log10) ([2]; 1100 nM): 0.049 ± 0.078
- level (log10) ([2]; 3300 nM): 0.056 ± 0.076
- level (log10) ([2]; 10000 nM): 0.062 ± 0.047
- level (log10) ([3]; 6700 nM): -0.0085 ± 0.0092
- level (log10) ([3]; 20000 nM): -0.026 ± 0.0057
- level (log10) ([3]; 60000 nM): -0.023 ± 0.017
- level (log10) ([4]; 6700 nM): -0.0265 ± 0.015
- level (log10) ([4]; 20000 nM): -0.069 ± 0.0099
- level (log10) ([4]; 60000 nM): -0.153 ± 0.025
- level (log10) ([5]; 6700 nM): 0.0145 ± 0.011
- level (log10) ([5]; 20000 nM): -0.0095 ± 0.00071
- level (log10) ([5]; 60000 nM): -0.014 ± 0.024
- level (log10) ([6]; 6700 nM): -0.057 ± 0.086
- level (log10) ([6]; 20000 nM): 0.008 ± 0.072
- level (log10) ([6]; 60000 nM): -0.0255 ± 0.076

Test System: HDF3CGF:TIMP-1
- level (log10) ([1]; 6700 nM): -0.0005 ± 0.035
- level (log10) ([1]; 20000 nM): 0.0105 ± 0.067
- level (log10) ([1]; 60000 nM): 0.0195 ± 0.042
- level (log10) ([2]; 1100 nM): -0.0095 ± 0.04
- level (log10) ([2]; 3300 nM): 0.003 ± 0.03
- level (log10) ([2]; 10000 nM): 0.0065 ± 0.011
- level (log10) ([3]; 6700 nM): -0.002 ± 0.0071
- level (log10) ([3]; 20000 nM): -0.003 ± 0.0085
- level (log10) ([3]; 60000 nM): 0.019 ± 0.025
- level (log10) ([4]; 6700 nM): -0.0935 ± 0.049
- level (log10) ([4]; 20000 nM): -0.125 ± 0.065
- level (log10) ([4]; 60000 nM): -0.0675 ± 0.013
- level (log10) ([5]; 6700 nM): -0.022 ± 0.041
- level (log10) ([5]; 20000 nM): -0.021 ± 0.044
- level (log10) ([5]; 60000 nM): -0.036 ± 0.092
- level (log10) ([6]; 6700 nM): -0.045 ± 0.018
- level (log10) ([6]; 20000 nM): -0.02 ± 0.059
- level (log10) ([6]; 60000 nM): 0.0035 ± 0.005

Test System: BE3C:Keratin 8/18
- level (log10) ([1]; 6700 nM): -0.013 ± 0.0057
- level (log10) ([1]; 20000 nM): -0.002 ± 0.0071
- level (log10) ([1]; 60000 nM): -0.004 ± 0.011
- level (log10) ([2]; 1100 nM): -0.0165 ± 0.028
- level (log10) ([2]; 3300 nM): -0.0085 ± 0.022
- level (log10) ([2]; 10000 nM): -0.001 ± 0.038
- level (log10) ([3]; 6700 nM): -0.0155 ± 0.022
- level (log10) ([3]; 20000 nM): -0.017 ± 0.0014
- level (log10) ([3]; 60000 nM): -0.0375 ± 0.0035
- level (log10) ([4]; 6700 nM): -0.001 ± 0.0014
- level (log10) ([4]; 20000 nM): -0.0025 ± 0.005
- level (log10) ([4]; 60000 nM): 0.014 ± 0.031
- level (log10) ([5]; 6700 nM): 0.011 ± 0.0028
- level (log10) ([5]; 20000 nM): -0.0005 ± 0.025
- level (log10) ([5]; 60000 nM): -0.0045 ± 0.011
- level (log10) ([6]; 6700 nM): -0.034 ± 0.057
- level (log10) ([6]; 20000 nM): -0.02 ± 0.02
- level (log10) ([6]; 60000 nM): 0.0085 ± 0.026

Test System: MyoF:Collagen IV
- level (log10) ([1]; 6700 nM): -0.0165 ± 0.0021
- level (log10) ([1]; 20000 nM): -0.0125 ± 0.0035
- level (log10) ([1]; 60000 nM): 0.016 ± 0.027
- level (log10) ([2]; 1100 nM): 0.034 ± 0.054
- level (log10) ([2]; 3300 nM): 0.0255 ± 0.037
- level (log10) ([2]; 10000 nM): 0.0225 ± 0.025
- level (log10) ([3]; 6700 nM): -0.014 ± 0.0057
- level (log10) ([3]; 20000 nM): -0.0115 ± 0.005
- level (log10) ([3]; 60000 nM): -0.011 ± 0.042
- level (log10) ([4]; 6700 nM): -0.0215 ± 0.029
- level (log10) ([4]; 20000 nM): -0.055 ± 0.025
- level (log10) ([4]; 60000 nM): -0.0345 ± 0.028
- level (log10) ([5]; 6700 nM): -0.0105 ± 0.025
- level (log10) ([5]; 20000 nM): -0.0185 ± 0.023
- level (log10) ([5]; 60000 nM): 0.0035 ± 0.00071
- level (log10) ([6]; 6700 nM): 0 ± 0.0057
- level (log10) ([6]; 20000 nM): -0.0095 ± 0.012
- level (log10) ([6]; 60000 nM): 0.0285 ± 0.05

Test System: 3C:CD54/ICAM-1
- level (log10) ([1]; 6700 nM): -0.0205 ± 0.011
- level (log10) ([1]; 20000 nM): -0.0275 ± 0.00071
- level (log10) ([1]; 60000 nM): -0.029 ± 0.0014
- level (log10) ([2]; 1100 nM): 0.007 ± 0.02
- level (log10) ([2]; 3300 nM): -0.0005 ± 0.00071
- level (log10) ([2]; 10000 nM): 0.0185 ± 0.0064
- level (log10) ([3]; 6700 nM): 0.0045 ± 0.0035
- level (log10) ([3]; 20000 nM): 0.0025 ± 0.019
- level (log10) ([3]; 60000 nM): 0.0015 ± 0.022
- level (log10) ([4]; 6700 nM): -0.002 ± 0.0071
- level (log10) ([4]; 20000 nM): -0.018 ± 0.0071
- level (log10) ([4]; 60000 nM): -0.0095 ± 0.018
- level (log10) ([5]; 6700 nM): -0.01 ± 0.017
- level (log10) ([5]; 20000 nM): -0.022 ± 0.024
- level (log10) ([5]; 60000 nM): -0.0085 ± 0.011
- level (log10) ([6]; 6700 nM): -0.025 ± 0.018
- level (log10) ([6]; 20000 nM): -0.018 ± 0.017
- level (log10) ([6]; 60000 nM): 0.006 ± 0.0042

Test System: HDF3CGF:M-CSF
- level (log10) ([1]; 6700 nM): -0.0135 ± 0.0035
- level (log10) ([1]; 20000 nM): -0.0075 ± 0.005
- level (log10) ([1]; 60000 nM): 0.0115 ± 0.039
- level (log10) ([2]; 1100 nM): 0.0165 ± 0.0064
- level (log10) ([2]; 3300 nM): 0.0005 ± 0.033
- level (log10) ([2]; 10000 nM): -0.03 ± 0.092
- level (log10) ([3]; 6700 nM): 0.0115 ± 0.029
- level (log10) ([3]; 20000 nM): 0.015 ± 0.0085
- level (log10) ([3]; 60000 nM): 0.0535 ± 0.054
- level (log10) ([4]; 6700 nM): -0.0595 ± 0.0078
- level (log10) ([4]; 20000 nM): -0.072 ± 0.042
- level (log10) ([4]; 60000 nM): -0.051 ± 0.014
- level (log10) ([5]; 6700 nM): -0.0205 ± 0.081
- level (log10) ([5]; 20000 nM): -0.0565 ± 0.13
- level (log10) ([5]; 60000 nM): -0.0735 ± 0.15
- level (log10) ([6]; 6700 nM): -0.027 ± 0.067
- level (log10) ([6]; 20000 nM): -0.035 ± 0.023
- level (log10) ([6]; 60000 nM): -0.004 ± 0.0057
